Entries after “also recorded” stand apart in the source; their conditions may differ.
Legend:
Type in all cases: cell-based, Staphylococcus aureus
S. aureus UAMS-1 = assay: Fractional inhibitory concentration (FIC) testing with mupirocin; conditions: for MIC: Staphylococcus aureus, UAMS1, compound alone, read-out: Cpd MIC, Dosed-Individually; for FIC Index / Antimicrobial interaction with mupirocin (class by FIC index): compound + mupirocin; for Cpd MIC, Dosed-Combination: compound MIC in combination with mupirocin
Procedure: Fractional inhibitory concentration (FIC) testing was performed, as previously described. Briefly, each well of a 96-well microtiter plate was inoculated with 10^4 CFU of S. aureus UAMS-1 [42]. Each row of the plate was supplemented with two-fold increasing concentrations of mupirocin (0 µg mL^−1 to 2 µg mL^−1) whereas each column contained two-fold increasing concentrations of putative RnpA inhibitor compound (0.03, 0.0625, 0.125, 0.25, 0.5, 1, or 2× MIC). […] The FIC index was defined by the following formula: FIC = (MIC of Drug A in Combination/MIC of Drug A Alone) + (MIC of Drug B in Combination/MIC of Drug B Alone). A synergistic interaction was defined as a FIC value of ≤0.5, an additive interaction as 0.5–1, no interaction as 1–4 and antagonistic interaction as FIC ≥ 4, as described.

[1] = test system: RnpA-mediated ptRNA processing; assay: Cellular ptRNA^Tyr accumulation (qRT-PCR); conditions: 0.5X MIC for 1 h, Figure 3 right
Procedure: To evaluate the effects of each analog on cellular RnpA-mediated ptRNA processing, S. aureus cells were treated with a sub-inhibitory concentration of each analog (0.5X MIC) and qRT-PCR was used to measure ptRNA^Tyr accumulation, as previously described. […] Compounds RNP0007, 11,13, 14, 15, and 16 had little effect on ptRNA^Tyr levels in the cellular context.
Cellular S. aureus tRNA^Tyr pools were measured as previously described. […] The culture was removed, combined with an equal volume of acetone:ethanol (1:1 v/v) and stored at −80 °C.
(§1) Cell suspensions in acetone:ethanol were thawed on ice and centrifuged at 1560× g for 10 min at 4 °C. Acetone:ethanol was decanted, and pellets were left to air-dry for 5 min. Cell pellets were resuspended in 500 µL ice-cold TE buffer (10 mM Tris-HCl, pH 8.0, 1mM EDTA) and transferred to FastPrep Lysing Matrix B tubes (MP Biomedicals, Santa Ana, CA). Mixtures were homogenized at 5 m∙s^−1 for 20 s, rested on ice for 5 min, then homogenized again at 4.5 m∙s^−1 for 20 s in a FastPrep-24 instrument. Cell lysates were centrifuged at 16,200× g for 15 min at 4 °C to remove cell debris. Total bacterial RNA and tRNA^Tyr populations were isolated from the supernatant using Qiagen RNeasy Mini kits and miRNeasy kits, respectively, following the manufacturer’s recommendations (Germantown, MD). For qRT-PCR, 2 µg of RNA substrate was treated with 2 units of DNase I (New England Biolabs, Ipswich, MA, USA) for 1 h at 37 °C and re-purified using Qiagen RNeasy Mini kits, following the manufacturer’s instructions. RNA was measured for concentration and quality using a NanoDrop spectrophotometer. Quantabio (Beverly, MA, USA) qScript cDNA Supermix was used to convert 200 ng of RNA into cDNA, following manufacturer’s instructions, which was subsequently amplified using Quantabio SYBR Green Fast Mix following manufacturer’s instructions. Fluorescence was read on the BioRad (Hercules, CA, USA) CFX 96 Connect Real Time Machine. Transcript levels were compared to the internal control 16S rRNA (ΔΔCt) and plotted as fold change compared to the control. The following primer pairs were used in this study for qRT-PCR: spa forward—[…]; spa reverse—[…]; –15 ptRNA^Tyr forward—[…]; tRNA^Tyr reverse—TGGTG GAGGGGGGCAGATTC; 16S rRNA forward—[…]; 16S rRNA reverse—[…].

[2] = test system: RnpA-mediated mRNA turnover of spa mRNA; assay: Cellular mRNA turnover assay (spa mRNA, qRT-PCR after rifampin arrest); conditions: 0.5X MIC for 30 min, 0 and 5 min post-transcriptional arrest, Figure 3 left
Procedure: As a more direct measure of whether the antimicrobial effects were RnpA-dependent, studies were performed to measure their inhibition of cellular RnpA-mediated mRNA turnover of spa mRNA. The spa mRNA is a natural substrate of RnpA mRNA degradation, as previously described, and can be utilized for an intracellular readout of inhibition for RnpA-mediated mRNA turnover. To do so, S. aureus cells were treated with a sub-inhibitory concentration of compound (0.5X MIC) then challenged with the antibiotic rifampicin to arrest de novo RNA synthesis. Quantitative RT-PCR was used to measure the cellular titers of spa mRNA at 0 and 5 min post-transcriptional arrest.
S.aureus RNA half-life measurements were performed as described. […] To inhibit de novo RNA synthesis, rifampin (Alfa Aesar, Haverhill, MA, USA) was added to the culture at a final concentration of 200 µg mL^−1. Half of the culture was immediately removed and combined with an equal volume of ice-cold acetone:ethanol (1:1 v/v). The remainder of the culture was returned to the 37 °C incubator for an additional 5 min, then combined with an equal volume of ice-cold acetone:ethanol (1:1 v/v) and stored at −80 °C.
as §1

In the case of O=C(Nc1cccc(F)c1)c1c(NC(=O)C(F)(F)F)sc2c1CCCC2 [RNP0013], the MIC (S. aureus UAMS-1) is reported as 6.25 µM, the “FIC Index” value (S. aureus UAMS-1) is reported as 0.75 and the “Cpd MIC, Dosed-Combination” value (S. aureus UAMS-1) is reported as 1.56 µM. For the same compound, the “Cellular ptRNA^Tyr accumulation (in words)” value [1] was “little effect”.

In the case of O=C(Nc1cccc(C(F)(F)F)c1)c1c(NC(=O)C(F)(F)F)sc2c1CCCC2 [RNP0016], the MIC (S. aureus UAMS-1) is reported as 3.12 µM, the “Antimicrobial interaction with mupirocin (class by FIC index)” value (S. aureus UAMS-1) is reported as “additive (a value of 0.5 < FIC ≤ 1 indicates additive effect)” and the “FIC Index” value (S. aureus UAMS-1) is reported as 1. The “Cpd MIC, Dosed-Combination” value (S. aureus UAMS-1) was 1.56 µM, the “Inhibition of cellular spa mRNA turnover (in words)” value (from here on “Inhibition”) [2] was “strongest stabilizers of mRNA” and the “Cellular ptRNA^Tyr accumulation (in words)” value [1] was “little effect”.

For O=C(Nc1ccc(F)cc1)c1c(NC(=O)C(F)(F)F)sc2c1CCCCC2 [RNP0009], the MIC (S. aureus UAMS-1) was 0.78 µM, the “FIC Index” value (S. aureus UAMS-1) was 0.75 and the “Cpd MIC, Dosed-Combination” value (S. aureus UAMS-1) was 0.196 µM. The “Inhibition” value [2] was “weakest inhibitors” and the “Cellular ptRNA^Tyr accumulation (in words)” value [1] was “largest increases”.

In the case of O=C(Nc1ccc(C(F)(F)F)cc1)c1c(NC(=O)C(F)(F)F)sc2c1CCCC2 [RNP0015], the MIC (S. aureus UAMS-1) is reported as 0.78 µM, the “FIC Index” value (S. aureus UAMS-1) is reported as 1.5 and the “Cpd MIC, Dosed-Combination” value (S. aureus UAMS-1) is reported as 0.78 µM. The “Cellular ptRNA^Tyr accumulation (in words)” value [1] was “little effect”.

For O=C(Nc1cccc(F)c1)c1c(NC(=O)C(F)(F)F)sc2c1CCCCC2 [RNP0008], the MIC (S. aureus UAMS-1) was 0.391 µM, the “FIC Index” value (S. aureus UAMS-1) was 1 and the “Cpd MIC, Dosed-Combination” value (S. aureus UAMS-1) was 0.196 µM. The “Inhibition” value [2] was “weakest inhibitors” and the “Cellular ptRNA^Tyr accumulation (in words)” value [1] was “largest increases”.

O=C(Nc1ccc(F)cc1)c1c(NC(=O)C(F)(F)F)sc2c1CCCC2 [RNP0014] was tested, and the MIC (S. aureus UAMS-1) was 6.25 µM, the “Antimicrobial interaction with mupirocin (class by FIC index)” value (S. aureus UAMS-1) was “synergistic (FIC ≤ 0.5 indicates synergistic activity)” and the “FIC Index” value (S. aureus UAMS-1) was 0.5. The “Cpd MIC, Dosed-Combination” value (S. aureus UAMS-1) was 1.56 µM, the “Inhibition” value [2] was “strongest stabilizers of mRNA” and the “Cellular ptRNA^Tyr accumulation (in words)” value [1] was “little effect”.

For Cc1cccc(NC(=O)c2c(NC(=O)C(F)(F)F)sc3c2CCCCC3)c1 [RNP0010], the MIC (S. aureus UAMS-1) was 3.12 µM, the “FIC Index” value (S. aureus UAMS-1) was 0.75 and the “Cpd MIC, Dosed-Combination” value (S. aureus UAMS-1) was 0.78 µM. For the same compound, the “Inhibition” value [2] was “strong inhibitor” and the “Cellular ptRNA^Tyr accumulation (in words)” value [1] was “largest increases”.

In the case of O=C(Nc1cccc(C(F)(F)F)c1)c1c(NC(=O)C(F)(F)F)sc2c1CCCCC2 [RNP0011], the MIC (S. aureus UAMS-1) is reported as 0.391 µM, the “FIC Index” value (S. aureus UAMS-1) is reported as 0.75 and the “Cpd MIC, Dosed-Combination” value (S. aureus UAMS-1) is reported as 0.098 µM. The “Inhibition” value [2] was “moderate inhibitors” and the “Cellular ptRNA^Tyr accumulation (in words)” value [1] was “little effect”.

With O=C(Nc1cccc(Cl)c1)c1c(NC(=O)C(F)(F)F)sc2c1CCCCC2 [RNP0007] the MIC (S. aureus UAMS-1) was 0.391 µM, the “FIC Index” value (S. aureus UAMS-1) was 0.75 and the “Cpd MIC, Dosed-Combination” value (S. aureus UAMS-1) was 0.098 µM. For the same compound, the “Cellular ptRNA^Tyr accumulation (in words)” value [1] was “little effect”.

O=C(Nc1ccc(C(F)(F)F)cc1)c1c(NC(=O)C(F)(F)F)sc2c1CCCCC2 [RNP0012] was tested, and the MIC (S. aureus UAMS-1) was 0.19 µM, the “Antimicrobial interaction with mupirocin (class by FIC index)” value (S. aureus UAMS-1) was “additive (a value of 0.5 < FIC ≤ 1 indicates additive effect)” and the “FIC Index” value (S. aureus UAMS-1) was 0.75. For the same compound, the “Cpd MIC, Dosed-Combination” value (S. aureus UAMS-1) was 0.048 µM, the “Inhibition” value [2] was “moderate inhibitors; also recorded: significantly reduced RnpA-associated mRNA degradation” and the “Cellular ptRNA^Tyr accumulation (in words)” value [1] was “largest increases; also recorded: top-performing cellular ptRNA processing inhibitor”.
